For 33 compounds, EC50 results are on record in patent US12612412B2, “Antiviral heterocyclic compounds” (Enanta Pharmaceuticals, Inc., priority 2021, dated 2026).

Assay [1] has as its system genotype A, "Long" strain RSV. In words: RSV-A assay (CPE protection in Hep-2 cells, ATPlite readout). Format: cell-based, Human respiratory syncytial virus (HRSV). The following applies: human respiratory syncytial virus, MOI 0.1, CPE protection. The procedure, abridged:
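Compound effect on RSV-induced CPE: Hep-2 monolayers, MOI 0.1, duplicate 2-fold titrations, 5-day culture in 10% FBS DMEM. Readout is ATP-based luminescence, normalised to virus-only and no-virus controls, giving EC50.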
A general note: Cellular ATP, detected with luciferase, serves as a proxy for viable cell number.

Assay [2] concerns recombinant HMPV CAN97-83 containing eGFP (MPV-GFP1). Description: HMPV antiviral assay Method-A (MPV-GFP1 eGFP fluorescence in Vero E6 cells). In kind it is cell-based, Human metapneumovirus (HMPV). As to conditions: human metapneumovirus, Vero C1008, 120 h, read-out: HMPV EC50. The protocol:
HMPV antiviral activity was evaluated using a recombinant version of HMPV CAN97-83 engineered to contain the coding sequence for enhanced green fluorescence protein (eGFP) in the 3′ end of the virus genome (MPV-GFP1, ViraTree). Vero E6 cells ([…]) were seeded at a density of 12,000 cells/100 μL/well into 96-well cell plates one day prior to the assay. On the day of screening, the cell culture medium was aspirated from the wells and cells were washed twice with serum-free Eagle's Modified Essential Medium (EMEM, ATCC #) containing 1% penicillin-streptomycin (Invitrogen) (SF-EMEM). Cell washes were performed by dispensing 100 μL SF-EMEM per well and immediately aspirating the wash medium from the well. Following the second wash step, serum-free OptiMEM (Invitrogen, Cat No.) (SF-OptiMEM) containing 0.5 μg/mL TPCK-Trypsin (VENDOR) and 1% penicillin-streptomycin was added to the cells at 50 μL/well. Compounds were added into the 96-well plates using a JANUS automated liquid handling system (VENDOR). Compounds were initially diluted 1:50 into an intermediate 96-well plate containing SF-OptiMEM prior to transfer to the assay plate (25 μL/well). Each of the test compounds were tested in duplicate wells at final concentrations starting from 8 μM or 2 μM using ½ stepwise dilutions for a total of 8 points. Virus infection was performed by preparing a working stock of MPV-GFP1 at a multiplicity of infection (MOI) equal to 0.05/25 μL and aliquoting 25 μL of virus inoculum to the compound and positive control wells. SF-OptiMEM was added (25 μL/well) to the appropriate wells to serve as a virus-free negative control for the assay. The final DMSO concentration of all wells is 0.5%. Plates were incubated at 32° C., 5% CO2 for 5 days.
After 5 days incubation, eGFP fluorescence intensity was measured at (X) […] wavelength using a Spectramax i3× plate reader (VENDOR). Percent viral inhibition was calculated using the following equation: y=[…]
Where XQ is the fluorescence intensity measured in a well containing recombinant MPV-GFP1-infected, compound-treated cells and XP is the average fluorescence intensity measured in the wells containing untreated cells infected with recombinant virus. EC50 values were then calculated by non-linear regression using a four parameter curve logistic equation. The curve fit model employed was XLFit Dose Response One Site Model 200: y=(A+(B/(1+((x/C)^D))))
Where A is the minimum y value, B is the maximum y value, C is the log EC50 value, and D is the slope factor. […] EC50 ranges are as follows: A<0.5 μM; B>0.5 μM.

In assay [3] the test system is HMPV clinical isolate TN/1501/A1. In words: HMPV antiviral assay Method-B (clinical isolate TN/1501/A1 in LLC-MK2 cells, ATP-Lite readout). Format: cell-based, Human metapneumovirus (HMPV). As to conditions: human metapneumovirus, LLC-MK2, 144 h, hMPV WT1501 (clinical isolate TN/1501/A1), 6 days. The procedure, abridged: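 LLC-MK2 cells infected in suspension with TN/1501/A1 at MOI 0.014 in serum-free medium with 2 μg/mL TPCK-trypsin (final), incubated 6 days at 37° C. Compounds tested in duplicate, 10-point 3-fold dilutions from 10 μM. Cell health read by ATP-Lite luminescence, normalised to virus-only and cells-only controls; EC50 by four-parameter logistic fit.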

Setting [4] is: genotype A “Long” strain RSV, read-out: Human RSV-A (“Long”).
[5] abbreviates: RSV-A Long strain, read-out: Human RSV-A (“Long”) EC50.

Like-named read-outs stand apart in the source and are kept apart here. Bounds are passed on as bounds.

`C[C@H](COc1ccc(C(=O)NC[C@](O)(c2cc3c(c(-c4ccc(F)cc4)n2)OC[C@]3(C)C(N)=O)C(F)(F)F)cc1OC1CC1)OP(=O)(O)O` [Example 3]: the figures for the EC50 in assay [1] (setting [4]) and in assay [2] were below 200 nM and above 500 nM, respectively.
With `COc1cc(C(=O)NC[C@](O)(c2cc3c(c(-c4ccc(F)cc4)n2)OC[C@]3(C)C(N)=O)C(F)(F)F)cc2cc(C)c(CO)nc12` [Example 4], the EC50 in assay [1] (setting [4]) is below 200 nM; in assay [2] it was below 500 nM.
On the same counts, the results for `COc1cc(C(=O)NC[C@](O)(c2cc3c(c(-c4ccc(F)cc4)n2)OC[C@]3(C)C(N)=O)C(F)(F)F)cc2ccnnc12` [Example 6] are below 200 nM and below 500 nM.
On to `C[C@]1(C(N)=O)COc2c1cc([C@@](O)(CNC(=O)c1ccc3nnc(C4CC4)cc3c1)C(F)(F)F)nc2-c1ccc(F)cc1` [Example 7], for which the results for the EC50 in assay [1] (setting [4]) and in assay [2] were below 200 nM and below 500 nM, respectively.
As to `COc1cc(C(=O)NC[C@](O)(c2cc3c(c(-c4ccc(F)cc4)n2)OC[C@]3(C)C(N)=O)C(F)(F)F)cc2cc(C)nnc12` [Example 9], the EC50 was below 200 nM in assay [1] (setting [4]) and below 500 nM in assay [2].
For the compound `COc1cc(C(=O)NC[C@](O)(c2cc3c(c(-c4ccc(F)c(Cl)c4)n2)OC[C@]3(C)C(N)=O)C(F)(F)F)cc2cc(C)nnc12` [Example 10], the EC50 is below 200 nM in assay [1] (setting [4]) and below 500 nM in assay [2].
In the case of `CCc1nc2ccc(C(=O)NC[C@](O)(c3cc4c(c(-c5ccc(F)cc5)n3)OC[C@]4(C)C(N)=O)C(F)(F)F)cc2s1` [Example 11], the EC50 in assay [1] (setting [4]) is below 200 nM; in assay [2], above 500 nM.
With `C[C@]1(C(N)=O)COc2c1cc([C@@](O)(CNC(=O)c1cc(F)c3nc(N)sc3c1)C(F)(F)F)nc2-c1ccc(F)c(Cl)c1` [Example 12], the EC50 was below 200 nM in assay [1] (setting [4]) and below 500 nM in assay [2].
For `C[C@]1(C(N)=O)COc2c1cc([C@@](O)(CNC(=O)c1cc(Cl)c3nc(N)sc3c1)C(F)(F)F)nc2-c1ccc(F)c(Cl)c1` [Example 13], the figures for the EC50 in assay [1] (setting [4]) and in assay [2] were below 200 nM and below 500 nM, respectively.
`C[C@]1(C(N)=O)COc2c1cc([C@@](O)(CNC(=O)c1ccc3nc(C4CC4)sc3c1)C(F)(F)F)nc2-c1ccc(F)cc1` [Example 14]: the values for the EC50 in assay [1] (setting [4]) and in assay [2] were below 200 nM and below 500 nM, respectively.
`CCc1nc2c(OC)cc(C(=O)NC[C@](O)(c3cc4c(c(-c5ccc(F)cc5)n3)OC[C@]4(C)C(N)=O)C(F)(F)F)cc2s1` [Example 16]: the results for the EC50 in assay [1] (setting [4]) and in assay [2] were below 200 nM and below 500 nM, respectively.
In the case of `COc1cc(C(=O)NC[C@](O)(c2cc3c(c(-c4ccc(F)cc4)n2)OC[C@]3(C)C(N)=O)C(F)(F)F)cc2sc(C3CC3)nc12` [Example 17], the EC50 in assay [1] (setting [4]) is below 200 nM; in assay [2], below 500 nM.
As for `COc1cc(C(=O)NC[C@](O)(c2cc3c(c(-c4ccc(F)c(Cl)c4)n2)OC[C@]3(C)C(N)=O)C(F)(F)F)cc2sc(C3CC3)nc12` [Example 19], the EC50 in assay [1] (setting [4]) was below 200 nM; in assay [2], below 500 nM.
`CCc1nc2c(OC)cc(C(=O)NC[C@](O)(c3cc4c(c(-c5ccc(F)c(Cl)c5)n3)OC[C@]4(C)C(N)=O)C(F)(F)F)cc2s1` [Example 20]: the EC50 was below 200 nM in assay [1] (setting [4]) and below 500 nM in assay [2].
On to `Cn1cc2cc(C(=O)NC[C@](O)(c3cc4c(c(-c5ccc(F)cc5)n3)OC[C@]4(C)C(N)=O)C(F)(F)F)cc(F)c2n1` [Example 22], for which the EC50 in assay [1] (setting [4]) is below 200 nM; in assay [2], below 500 nM.
With `COc1cc(C(=O)NC[C@](O)(c2cc3c(c(-c4ccc(F)cc4)n2)OC[C@]3(C)C(N)=O)C(F)(F)F)cc2cn(C3CC3)nc12` [Example 24], the EC50 in assay [1] (setting [4]) was below 200 nM; in assay [2], below 500 nM.
On the same counts, the results for `C[C@]1(C(N)=O)COc2c1cc([C@@](O)(CNC(=O)c1cc(F)c3nn(C4CC4)cc3c1)C(F)(F)F)nc2-c1ccc(F)cc1` [Example 25] are below 200 nM and below 500 nM.
For `C[C@]1(C(N)=O)COc2c1cc([C@@](O)(CNC(=O)c1cc(OC3CC3)c3nn(C4CC4)cc3c1)C(F)(F)F)nc2-c1ccc(F)cc1` [Example 26], the EC50 in assay [1] (setting [4]) is below 200 nM; in assay [2] it was below 500 nM.
`Cn1cc2cc(C(=O)NC[C@](O)(c3cc4c(c(-c5ccc(F)cc5)n3)OC[C@]4(C)C(N)=O)C(F)(F)F)cc(OC3CC3)c2n1` [Example 27]: the EC50 in assay [1] (setting [4]) was below 200 nM; in assay [2], below 500 nM.
On the same counts, the results for `COc1cc(C(=O)NC[C@](O)(c2cc3c(c(-c4ccc(F)c(Cl)c4)n2)OC[C@]3(C)C(N)=O)C(F)(F)F)cc2cn(C3CC3)nc12` [Example 28] are below 200 nM and below 500 nM.
As for `C[C@]1(C(N)=O)COc2c1cc([C@@](O)(CNC(=O)c1cc(F)c3nn(C4CC4)cc3c1)C(F)(F)F)nc2-c1ccc(F)c(Cl)c1` [Example 29], the EC50 in assay [1] (setting [4]) was below 200 nM; in assay [2], below 500 nM.
On the same counts, the results for `C[C@]1(C(N)=O)COc2c1cc([C@@](O)(CNC(=O)c1cc(OC3CC3)c3nn(C4CC4)cc3c1)C(F)(F)F)nc2-c1ccc(F)c(Cl)c1` [Example 30] are below 200 nM and below 500 nM.
Take `COc1cc(C(=O)NC[C@](O)(c2cc3c(c(-c4ccc(F)c(Cl)c4)n2)OC[C@]3(C)C(N)=O)C(F)(F)F)cc2cc(C3CC3)nn12` [Example 32]: the EC50 in assay [1] (setting [4]) is below 200 nM; in assay [2], below 500 nM.
As for `C[C@]1(C(N)=O)COc2c1cc([C@@](O)(CNC(=O)c1ccc3c(c1)CN(C1CC1)C3=O)C(F)(F)F)nc2-c1ccc(F)cc1` [Example 34], the EC50 was below 200 nM in assay [1] (setting [4]) and above 500 nM in assay [2].
On the same counts, the results for `COc1cc(C(=O)NC[C@](O)(c2cc3c(c(-c4ccc(F)cc4)n2)OC[C@]3(C)C(N)=O)C(F)(F)F)cc2cn(C(F)F)nc12` [Example 40] are below 200 nM and below 500 nM.
Regarding `C[C@]1(C(N)=O)COc2c1cc([C@@](O)(CNC(=O)c1ccc3nn(C(F)F)cc3c1)C(F)(F)F)nc2-c1ccc(F)cc1` [Example 41], the EC50 in assay [1] (setting [4]) is below 200 nM; in assay [2], below 500 nM.
In the case of `C[C@]1(C(N)=O)COc2c1cc([C@@](O)(CNC(=O)c1cc(Cl)c3nn(C(F)F)cc3c1)C(F)(F)F)nc2-c1ccc(F)cc1` [Example 42], the EC50 is below 200 nM in assay [1] (setting [4]) and below 500 nM in assay [2].
Regarding `C[C@]1(C(N)=O)COc2c1cc([C@@](O)(CNC(=O)c1cc(F)c3nn(C(F)F)cc3c1)C(F)(F)F)nc2-c1ccc(F)cc1` [Example 43], the EC50 was below 200 nM in assay [1] (setting [4]) and below 500 nM in assay [2].
On the same counts, the results for `C[C@]1(C(N)=O)COc2c1cc([C@@](O)(CNC(=O)c1cc(Cl)c3nn(C(F)F)cc3c1)C(F)(F)F)nc2-c1ccc(F)c(Cl)c1` [Example 44] are below 200 nM and below 500 nM.
With `C[C@]1(C(N)=O)COc2c1cc([C@@](O)(CNC(=O)c1cc(F)c3nn(C(F)F)cc3c1)C(F)(F)F)nc2-c1ccc(F)c(Cl)c1` [Example 45], the results for the EC50 in assay [1] (setting [4]) and in assay [2] were below 200 nM and below 500 nM, respectively.
With `C[C@]1(C(N)=O)COc2c1cc([C@@](O)(CNC(=O)c1cc(C3CC3)c3nn(C(F)F)cc3c1)C(F)(F)F)nc2-c1ccc(F)cc1` [Example 47], the EC50 in assay [1] (setting [4]) was below 200 nM; in assay [2], below 500 nM.
As to `COc1cc(C(=O)NC[C@](O)(c2cc3c(c(-c4cccc(-c5ccccc5)c4)n2)OC[C@]3(C)C(N)=O)C(F)(F)F)cc2cn(C3CC3)nc12` [Example 1251], the EC50 in assay [3] was above 500 nM; in assay [1] (setting [5]), above 200 nM.
As for `COc1cc(C(=O)NC[C@](O)(c2cc3c(c(N4CCOCC4)n2)OC[C@]3(C)C(N)=O)C(F)(F)F)cc2cn(C3CC3)nc12` [Example 1269], the EC50 in assay [3] was above 500 nM; in assay [1] (setting [5]), above 200 nM.
